Test results as given in patent publication US20190151341A1, “APPLICATION OF TENVERMECTIN FOR PREVENTING AND TREATING PARASITE INFECTION” (ZHEJIANG HISUN PHARMACEUTICAL CO., LTD., priority 2016, published 2019).

Assays:
swine Haematopinus = test: Killing effect on swine Haematopinus on the body surface; type: in vivo; conditions: pigs, 1% injection 0.2 mg/kg bw s.c., until the 7th day and in the following 3 weeks
Source text: (§1) Test agents: 1% ivermectin injection, 1% tenvermectin A injection, and 1% tenvermectin B injection as obtained in Example 1.
(§2) Test animals and grouping: pigs cultured in the same farm were selected, and 40 pigs naturally infected with nematodes in the digestive tract were selected for testing through fecal examination. The average weight of the test pigs was 30-50 kg. Forty pigs were randomly divided into 4 groups, 10 for each group. The first group was the ivermectin control group, the second group was the tenvermectin A group, and the third group was the tenvermectin B group. All the medicated groups were injected subcutaneously in the neck according to 0.2 mg/kg·bw. The forth group was a blank group and was not administered.
(§3) 1) The feces of the pigs in each group were collected and examined one by one a day before administration, and worm eggs were counted by the McMaster's method. The number of eggs per gram of feces (EPG) was counted and the condition of Haematopinus on the body surface was observed.
(§4) 2) 1, 2, 3 and 4 weeks after administration, the feces of the pigs in each group were examined by the McMaster's method, and the EPG was counted and the changes of Haematopinus on the body surface were observed.
4) The killing effects of swine Haematopinus of the agents were assessed according to the survival of swine Haematopinus on the 7th day after administration.

[1] = test system: allogynogenetic crucian carp; test: Toxicity to allogynogenetic crucian carp, semi-static method, 96 hours; type: in vivo; conditions: allogynogenetic crucian carp
Source text: Test fish and water: allogynogenetic crucian carp was purchased from Taowang Farm in Jiaojiang District, Taizhou City, with a body length of (9.60±0.52) cm and a body weight of (28.22±3.44) g. The healthy and vigorous fish with the same size were selected and temporarily raised in an indoor aquarium. They were domesticated for 7 days indoors before the test. The natural mortality rate was zero.
99.4% Tenvermectin A (the mass content of tenvermectin B was 0.02%) (Zhejiang Hisun Pharmaceutical Co., Ltd.);
Tenvermectin (the mass ratio of tenvermectin A/tenvermectin B was 95/5) (Zhejiang Hisun Pharmaceutical Co., Ltd.);
Tenvermectin (the mass ratio of tenvermectin A/tenvermectin B was 90/10) (Zhejiang Hisun Pharmaceutical Co., Ltd.);
Tenvermectin (the mass ratio of tenvermectin A/tenvermectin B was 85/15) (Zhejiang Hisun Pharmaceutical Co., Ltd.);
99.1% Tenvermectin B (the mass content of tenvermectin A was 0.51%) (Zhejiang Hisun Pharmaceutical Co., Ltd.);
92% Avermectin (Zhejiang Qianjiang Biochemical Co., Ltd.);
96% Ivermectin (Zhejiang Hisun Pharmaceutical Co., Ltd.);
90% Methylamino avermectin benzoate (Emamectin benzoate) (Zhejiang Shenghua Biok Biotechnology Co., Ltd.).
Method: semi-static method. […]

[2] = test system: digestive tract nematodes; test: Repelling nematode in digestive track of sheep (fecal egg count); type: in vivo; conditions: for Number of sheep negatively conversed: sheep (20 per group); for Number of sheep negatively conversed / Egg reduction rate (%) / Negative conversion rate (%): 1% injection 0.2 mg/kg bw s.c.; for Number of sheep negatively conversed / Egg reduction rate (%) / Negative conversion rate (%) / EPG after administration: 9th day after administration; for Egg reduction rate (%) / Negative conversion rate (%) / EPG after administration / EPG before administration: sheep; for EPG after administration / EPG before administration: eggs per gram of feces; for EPG after administration: 0.2 mg/kg bw s.c.; for EPG before administration: baseline a day before administration
Source text: as §1
Test animals and grouping: sheep grazed under the same condition were selected, and 80 sheep of 0.8-2.0 years old naturally infected with digestive tract nematodes were selected through fecal examination. The average weight of the test sheep was 30 kg. The 80 sheep were randomly divided into 4 groups, 20 heads for each group. The first group was the ivermectin control group, the second group was the tenvermectin A group, and the third group was the tenvermectin B group. All the medicated groups were injected subcutaneously in the neck according to 0.2 mg/kg·bw. The fourth group was a blank group and was not medicated.
1) The feces of the sheep in each group were collected and examined one by one a day before administration, and the worm eggs were counted by the McMaster's method, and the number of eggs per gram of feces (EPG) was counted.
2) On the 9th day after administration, the sheep of each group were subjected to a fecal examination by McMaster's method, and EPG was counted.
3) The egg negative conversion rates and egg reduction rates were calculated according to a conventional method to assess the efficacy.

zebrafish = test: Toxicity to zebrafish, semi-static method, 96 hours
Method: Test agents: avermectin, milbemycin, ivermectin, tenvermectin A and tenvermectin B were all from Zhejiang Hisun Pharmaceutical Co., Ltd. The samples were formulated into 50 mg/ml mother liquors with DMF.
Test fish and water: zebrafish (Brachydanio rerio) was purchased from Zhejiang Academy of Agricultural Sciences, with the same size, average body length of 2-3 cm and average body weight of 0.3 g. The zebrafish was domesticated for 7 days indoors before the test. […] Feeding was stopped 1 day before the test and the fish were not fed during the test. The test water was tap water with residual chlorine removed by exposure to the sun for more than 24 hours, and the pH thereof was 6.8.
Test methods: semi-static method. Three level differences were provided for each sample: 0.5 ppm, 1.0 ppm and 1.5 ppm, and three parallel groups were provided for each level difference, 10 zebrafish were raised for each group, and blank controls (one group without agents and one group with only solvent) were provided. The corresponding volume of mother liquor was taken according to the concentration as required for each sample, and the volume of each sample was adjusted to 150 μl with DMF, and then each sample was added to the test group (containing 1.6 L of water). The room temperature was controlled at 22±2° C. for 96 hours, and the water was changed every 24 hours and the samples were re-added. The fish mortality rate was recorded for the first 8 hours and at 24, 48, 72 and 96 hours, and the dead fish were removed in time.

[3] = test system: swine nematode (nematodes in the digestive tract); test: Repelling swine nematode in naturally infected pigs (fecal egg count, McMaster's method); type: in vivo; conditions: 1% injection 0.2 mg/kg bw s.c.
Source text: as §1, §2, §3, §4
3) The negative conversion rates and egg reduction rates of the test pigs were calculated by a conventional method to assess the efficacy of repelling swine nematode.

## COC1CC(OC2C(C)OC(OC3C(C)=CCC4CC(CC5(CCC(C)C(C)O5)O4)OC(=O)C4C=C(C)C(O)C5OCC(=CC=CC3C)C45O)CC2OC)OC(C)C1O (stereo not drawn) [Tenvermectin A, tenvermectin A]
Swine Haematopinus
  active Haematopinus observed on the body surface: no active Haematopinus was found
[1]; 0.5 ppm, 8 h
  Survival condition (survival rates/%): 100%
[1]; 0.5 ppm, 24 h
  Survival condition (survival rates/%): 100%
[1]; 0.5 ppm, 48 h
  Survival condition (survival rates/%): 100%
[1]; 0.5 ppm, 72 h
  Survival condition (survival rates/%): 100%
[1]; 0.5 ppm, 96 h
  Survival condition (survival rates/%): 100%
[1]; 1.0 ppm, 8 h
  Survival condition (survival rates/%): 100%
[1]; 1.0 ppm, 24 h
  Survival condition (survival rates/%): 100%
[1]; 1.0 ppm, 48 h
  Survival condition (survival rates/%): 100%
[1]; 1.0 ppm, 72 h
  Survival condition (survival rates/%): 100%
[1]; 1.0 ppm, 96 h
  Survival condition (survival rates/%): 100%
[1]; 2.0 ppm, 8 h
  Survival condition (survival rates/%): 100%
[1]; 2.0 ppm, 24 h
  Survival condition (survival rates/%): 100%
[1]; 2.0 ppm, 48 h
  Survival condition (survival rates/%): 100%
[1]; 2.0 ppm, 72 h
  Survival condition (survival rates/%): 100%
[1]; 2.0 ppm, 96 h
  Survival condition (survival rates/%): 100%
[1]; 96-hour LC50
  toxicity grade according to LC50: low toxic
[2]
  Number of sheep negatively conversed: 20
  Egg reduction rate (%): 100%
  Negative conversion rate (%): 100%
  EPG after administration: 0
  EPG before administration: 11600
zebrafish; 0.5 ppm, 8 h
  Survival condition (survival rates/%): 100%
zebrafish; 0.5 ppm, 24 h
  Survival condition (survival rates/%): 100%
zebrafish; 0.5 ppm, 48 h
  Survival condition (survival rates/%): 100%
zebrafish; 0.5 ppm, 72 h
  Survival condition (survival rates/%): 100%
zebrafish; 0.5 ppm, 96 h
  Survival condition (survival rates/%): 100%
zebrafish; 1.0 ppm, 8 h
  Survival condition (survival rates/%): 100%
zebrafish; 1.0 ppm, 24 h
  Survival condition (survival rates/%): 100%
zebrafish; 1.0 ppm, 48 h
  Survival condition (survival rates/%): 100%
zebrafish; 1.0 ppm, 72 h
  Survival condition (survival rates/%): 100%
zebrafish; 1.0 ppm, 96 h
  Survival condition (survival rates/%): 100%
zebrafish; 1.0 ppm, 96 h, listed as tenvermectin A
  Survival condition (survival rates/%): greater than 50%
zebrafish; 1.5 ppm, 8 h
  Survival condition (survival rates/%): 100%
zebrafish; 1.5 ppm, 24 h
  Survival condition (survival rates/%): 100%
zebrafish; 1.5 ppm, 48 h
  Survival condition (survival rates/%): 100%
zebrafish; 1.5 ppm, 72 h
  Survival condition (survival rates/%): 100%
zebrafish; 1.5 ppm, 96 h
  Survival condition (survival rates/%): 100%
zebrafish; 96 hours, semi-static
  96-hour LC50 on zebrafish: > 1 ppm
[3]; 1st week after administration
  Egg reduction rate (%): 79.6%
  Negative conversion rate (%): 70%
[3]; 2nd week after administration
  Egg reduction rate (%): 89.5%
  Negative conversion rate (%): 80%
[3]; 3rd week after administration
  Egg reduction rate (%): 98.6%
  Negative conversion rate (%): 90%
[3]; 4th week after administration
  Egg reduction rate (%): 78.8%
  Negative conversion rate (%): 70%

## CC[C@H]1O[C@]2(CC[C@@H]1C)C[C@@H]1C[C@@H](C/C=C(\C)[C@@H](O[C@H]3C[C@H](OC)[C@@H](O[C@H]4C[C@H](OC)[C@@H](O)[C@H](C)O4)[C@H](C)O3)[C@@H](C)/C=C/C=C3\CO[C@@H]4[C@H](O)C(C)=C[C@@H](C(=O)O1)[C@]34O)O2 [Tenvermectin B, tenvermectin B]
Swine Haematopinus
  active Haematopinus observed on the body surface: no active Haematopinus was found
[1]; 0.5 ppm, 8 h
  Survival condition (survival rates/%): 100%
[1]; 0.5 ppm, 24 h
  Survival condition (survival rates/%): 80%
[1]; 0.5 ppm, 48 h
  Survival condition (survival rates/%): 33%
[1]; 0.5 ppm, 72 h
  Survival condition (survival rates/%): 0%
[1]; 1.0 ppm, 8 h
  Survival condition (survival rates/%): 75%
[1]; 1.0 ppm, 24 h
  Survival condition (survival rates/%): 3%
[1]; 2.0 ppm, 8 h
  Survival condition (survival rates/%): 20%
[1]; 2.0 ppm, 24 h
  Survival condition (survival rates/%): 0%
[2]
  Number of sheep negatively conversed: 20
  Egg reduction rate (%): 100%
  Negative conversion rate (%): 100%
  EPG after administration: 0
  EPG before administration: 12200
zebrafish; 0.5 ppm, 8 h
  Survival condition (survival rates/%): 100%
zebrafish; 0.5 ppm, 24 h
  Survival condition (survival rates/%): 70%
zebrafish; 0.5 ppm, 48 h
  Survival condition (survival rates/%): 50%
zebrafish; 0.5 ppm, 72 h
  Survival condition (survival rates/%): 0%
zebrafish; 1.0 ppm, 8 h
  Survival condition (survival rates/%): 53%
zebrafish; 1.0 ppm, 24 h
  Survival condition (survival rates/%): 0%
zebrafish; 1.5 ppm, 8 h
  Survival condition (survival rates/%): 10%
zebrafish; 1.5 ppm, 24 h
  Survival condition (survival rates/%): 0%
zebrafish; in vivo
  toxicity to zebrafish, in words: did not reach the level of middle toxic
[3]; 1st week after administration
  Egg reduction rate (%): 85.3%
  Negative conversion rate (%): 80%
[3]; 2nd week after administration
  Egg reduction rate (%): 100%
  Negative conversion rate (%): 100%
[3]; 3rd week after administration
  Egg reduction rate (%): 100%
  Negative conversion rate (%): 100%
[3]; 4th week after administration
  Egg reduction rate (%): 95.8%
  Negative conversion rate (%): 90%
